Patent publication US20230079819A1, “COMPOUNDS AND USES THEREOF” (Foghorn Therapeutics Inc., priority 2019, published 2023)

Assays:
[1] = molecular target: T1, BRM (Homo sapiens, UniProt P51531); assay: ATPase catalytic activity of BRM, ADP-Glo in vitro biochemical assay; conditions: ATPase catalytic activity, 30 nM BRM, 400 μM ATP, read-out: BRM IP50 (μM)*
T1 construct: made in house; host or cells: High Five insect cells

[2] = molecular target: T2, BRG-1 (Homo sapiens, UniProt P51532); assay: ATPase catalytic activity of BRG-1, ADP-Glo in vitro biochemical assay; conditions: ATPase catalytic activity, 30 nM BRG-1, 400 μM ATP, read-out: BRG1 IP50 (μM)*
T2 construct: made in house; host or cells: High Five insect cells
T2 sequence (P51532 whole entry): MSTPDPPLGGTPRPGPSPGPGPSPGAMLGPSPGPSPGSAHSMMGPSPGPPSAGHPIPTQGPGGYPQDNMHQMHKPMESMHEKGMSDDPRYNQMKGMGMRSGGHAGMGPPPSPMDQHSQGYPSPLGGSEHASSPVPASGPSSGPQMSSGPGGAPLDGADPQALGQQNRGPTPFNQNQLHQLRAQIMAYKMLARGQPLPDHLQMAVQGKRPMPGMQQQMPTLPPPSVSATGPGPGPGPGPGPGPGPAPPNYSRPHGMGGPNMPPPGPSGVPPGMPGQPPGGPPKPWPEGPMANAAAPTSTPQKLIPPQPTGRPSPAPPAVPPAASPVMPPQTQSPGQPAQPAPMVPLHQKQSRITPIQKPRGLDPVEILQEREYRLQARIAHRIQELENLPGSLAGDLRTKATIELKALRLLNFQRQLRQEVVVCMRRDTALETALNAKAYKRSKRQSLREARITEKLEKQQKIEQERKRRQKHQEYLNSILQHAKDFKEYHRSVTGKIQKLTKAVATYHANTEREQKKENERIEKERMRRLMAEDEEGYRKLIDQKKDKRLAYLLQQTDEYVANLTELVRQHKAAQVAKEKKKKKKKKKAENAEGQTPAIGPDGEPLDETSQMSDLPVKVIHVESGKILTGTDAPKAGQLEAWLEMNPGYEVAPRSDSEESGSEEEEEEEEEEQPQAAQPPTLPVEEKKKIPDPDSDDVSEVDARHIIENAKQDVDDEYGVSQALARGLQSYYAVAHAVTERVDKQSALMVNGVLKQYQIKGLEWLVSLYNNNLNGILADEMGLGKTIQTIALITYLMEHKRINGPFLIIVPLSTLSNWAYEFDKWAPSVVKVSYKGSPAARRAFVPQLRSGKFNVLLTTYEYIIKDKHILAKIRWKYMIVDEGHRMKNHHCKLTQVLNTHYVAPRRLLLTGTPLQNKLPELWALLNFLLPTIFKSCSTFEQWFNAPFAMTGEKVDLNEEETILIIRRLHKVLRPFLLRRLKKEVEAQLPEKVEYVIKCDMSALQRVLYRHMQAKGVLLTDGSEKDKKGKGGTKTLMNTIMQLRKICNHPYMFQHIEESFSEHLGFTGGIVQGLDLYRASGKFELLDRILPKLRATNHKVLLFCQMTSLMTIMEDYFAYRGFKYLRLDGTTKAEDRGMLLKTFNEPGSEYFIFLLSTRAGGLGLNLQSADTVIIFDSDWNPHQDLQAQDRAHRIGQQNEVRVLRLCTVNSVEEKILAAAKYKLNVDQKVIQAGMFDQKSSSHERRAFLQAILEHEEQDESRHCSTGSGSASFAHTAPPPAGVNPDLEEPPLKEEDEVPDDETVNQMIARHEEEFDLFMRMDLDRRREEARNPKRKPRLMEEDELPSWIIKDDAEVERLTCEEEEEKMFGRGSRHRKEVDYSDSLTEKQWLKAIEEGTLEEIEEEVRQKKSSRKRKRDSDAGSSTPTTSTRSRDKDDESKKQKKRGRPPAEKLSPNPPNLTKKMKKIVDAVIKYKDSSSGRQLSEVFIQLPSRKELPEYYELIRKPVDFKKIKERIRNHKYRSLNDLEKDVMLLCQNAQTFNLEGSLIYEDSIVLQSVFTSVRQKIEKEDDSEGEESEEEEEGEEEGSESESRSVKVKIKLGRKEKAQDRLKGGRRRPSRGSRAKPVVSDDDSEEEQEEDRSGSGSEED

T1 sequence (P51531 whole entry): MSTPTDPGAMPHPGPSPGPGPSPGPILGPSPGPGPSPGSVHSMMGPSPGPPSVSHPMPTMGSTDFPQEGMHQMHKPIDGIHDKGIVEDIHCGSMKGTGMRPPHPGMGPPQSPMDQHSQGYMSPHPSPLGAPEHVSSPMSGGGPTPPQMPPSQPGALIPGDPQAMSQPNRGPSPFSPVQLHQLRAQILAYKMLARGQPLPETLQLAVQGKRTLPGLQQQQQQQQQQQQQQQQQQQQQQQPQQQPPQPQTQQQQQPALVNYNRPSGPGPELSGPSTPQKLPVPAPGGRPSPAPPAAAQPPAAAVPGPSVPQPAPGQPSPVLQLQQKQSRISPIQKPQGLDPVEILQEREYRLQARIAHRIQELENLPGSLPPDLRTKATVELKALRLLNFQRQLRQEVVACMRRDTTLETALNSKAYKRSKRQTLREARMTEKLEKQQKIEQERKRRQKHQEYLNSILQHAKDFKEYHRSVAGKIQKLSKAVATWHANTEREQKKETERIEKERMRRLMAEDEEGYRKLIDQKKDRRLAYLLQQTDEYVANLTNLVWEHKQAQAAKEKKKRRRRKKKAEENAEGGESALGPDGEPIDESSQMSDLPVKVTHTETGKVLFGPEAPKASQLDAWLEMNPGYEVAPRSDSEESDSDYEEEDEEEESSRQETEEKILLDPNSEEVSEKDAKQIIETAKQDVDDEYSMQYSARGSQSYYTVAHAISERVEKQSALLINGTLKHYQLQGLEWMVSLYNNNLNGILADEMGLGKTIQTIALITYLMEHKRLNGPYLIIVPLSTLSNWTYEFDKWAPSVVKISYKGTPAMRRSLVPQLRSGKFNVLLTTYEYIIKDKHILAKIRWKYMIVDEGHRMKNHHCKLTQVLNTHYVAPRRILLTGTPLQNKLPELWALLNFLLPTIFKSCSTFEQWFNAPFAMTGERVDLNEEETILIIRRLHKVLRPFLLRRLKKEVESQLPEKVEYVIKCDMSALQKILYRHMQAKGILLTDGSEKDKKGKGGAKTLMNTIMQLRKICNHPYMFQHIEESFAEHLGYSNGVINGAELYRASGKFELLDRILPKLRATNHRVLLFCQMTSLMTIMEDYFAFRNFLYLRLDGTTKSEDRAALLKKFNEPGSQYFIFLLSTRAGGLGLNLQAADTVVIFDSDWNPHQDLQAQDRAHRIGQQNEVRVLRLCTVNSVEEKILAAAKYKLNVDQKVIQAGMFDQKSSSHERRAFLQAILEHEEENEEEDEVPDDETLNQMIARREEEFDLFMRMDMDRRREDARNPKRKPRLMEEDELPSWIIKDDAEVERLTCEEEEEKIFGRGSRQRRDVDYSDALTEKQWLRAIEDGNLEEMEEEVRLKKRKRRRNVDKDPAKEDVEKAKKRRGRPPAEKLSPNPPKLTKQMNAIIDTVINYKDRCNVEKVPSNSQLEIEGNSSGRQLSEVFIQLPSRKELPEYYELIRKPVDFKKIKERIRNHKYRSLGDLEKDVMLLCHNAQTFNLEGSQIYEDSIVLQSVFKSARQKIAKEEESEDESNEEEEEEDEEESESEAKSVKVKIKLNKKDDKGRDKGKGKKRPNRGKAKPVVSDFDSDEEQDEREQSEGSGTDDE

SMILES | IC50 [1] | IC50 [2]
CC(C)(C)c1cccc(-c2csc(NC(=O)CNC(=O)c3ccn(S(C)(=O)=O)c3)n2)c1 [Compound 140, N-(2-((4-(3-(tert-butyl)phenyl)thiazol-2-yl)amino)-2-oxoethyl)-1-(methylsulfonyl)-1H-pyrrole-3-carboxamide] | > 0.1 µM | > 0.1 µM
CS(=O)(=O)n1ccc(C(=O)NCC(=O)Nc2nc(-c3cccc(C4(O)CCOCC4)c3)cs2)c1 [Compound 141, N-(2-((4-(3-(4-hydroxytetrahydro-2H-pyran-4-yl)phenyl)thiazol-2-yl)amino)-2-oxoethyl)-1-(methylsulfonyl)-1H-pyrrole-3-carboxamide] | > 0.1 µM | > 0.1 µM
CC(C)(C)n1ccc(C(=O)NCC(=O)Nc2nc(-c3ccc4cncnc4c3)cs2)c1 [Compound 142] | > 0.1 µM | > 0.1 µM
CN1CCn2nc(-c3cccc(-c4csc(NC(=O)CNC(=O)c5ccn(C(C)(C)C)c5)n4)c3)cc2C1 [Compound 143, 1-(tert-butyl)-N-(2-((4-(3-(5-methyl-4,5,6,7-tetrahydropyrazolo[1,5-a]pyrazin-2-yl)phenyl)thiazol-2-yl)amino)-2-oxoethyl)-1H-pyrrole-3-carboxamide] | > 0.1 µM | > 0.1 µM
Cn1ccc(-c2cccc(-c3csc(NC(=O)CNC(=O)c4ccn(C5(C)COC5)c4)n3)c2)n1 [Compound 144] | > 0.01 µM | > 0.01 µM
Cn1ccc(-c2cccc(-c3csc(NC(=O)CNC(=O)c4ccn(C(C)(C)C)c4)n3)n2)n1 [Compound 145] | > 0.01 µM | > 0.01 µM
CS(=O)(=O)n1ccc(C(=O)NCC(=O)Nc2nc(-c3c[nH]c(-c4ccncc4)n3)cs2)c1 [Compound 146, 1-(methylsulfonyl)-N-(2-oxo-2-((4-(2-(pyridin-4-yl)-1H-imidazol-4-yl)thiazol-2-yl)amino)ethyl)-1H-pyrrole-3-carboxamide] | > 1 µM | > 1 µM
CS(=O)(=O)n1ccc(C(=O)NCC(=O)Nc2nc(-c3cccc(OCc4ccncc4)n3)cs2)c1 [Compound 147] | < 0.01 µM | > 0.01 µM
CS(=O)(=O)n1ccc(C(=O)NCC(=O)Nc2nc(-c3cccc(/C=C/c4ccncc4)c3)cs2)c1 [Compound 150] | < 0.01 µM | < 0.01 µM
CS(=O)(=O)n1ccc(C(=O)NCC(=O)Nc2nc(-c3cccc(CCc4ccncc4)c3)cs2)c1 [Compound 151, 1-(methylsulfonyl)-N-(2-oxo-2-((4-(3-(2-(pyridin-4-yl)ethyl)phenyl)thiazol-2-yl)amino)ethyl)-1H-pyrrole-3-carboxamide] | < 0.01 µM | < 0.01 µM
CN(C(=O)CNC(=O)c1ccn(S(C)(=O)=O)c1)c1nc(-c2cccc(-c3ccncc3)c2)cs1 [Compound 152] | > 0.1 µM | > 0.1 µM
CC(C)(NC(=O)c1ccn(S(C)(=O)=O)c1)C(=O)Nc1nc(-c2cccc(-c3ccncc3)c2)cs1 [Compound 153] | > 0.1 µM | > 0.1 µM
Cc1cc(-c2cccc(-c3csc(NC(=O)CNC(=O)c4ccn(S(C)(=O)=O)c4)n3)c2)ccn1 [Compound 154] | < 0.01 µM | < 0.01 µM
CS(=O)(=O)n1ccc(C(=O)NCC(=O)Nc2cccc(-c3cccc(-c4ccncc4)c3)n2)c1 [Compound 156, 1-(methylsulfonyl)-N-(2-oxo-2-((6-(3-(pyridin-4-yl)phenyl)pyridin-2-yl)amino)ethyl)-1H-pyrrole-3-carboxamide] | > 0.01 µM | > 0.01 µM
CC1(C)OCC12CN(c1cccc(-c3csc(NC(=O)CNC(=O)c4ccn(S(C)(=O)=O)c4)n3)c1)C2 [Compound 157] | > 0.1 µM | > 0.1 µM
C[C@H]1CN(c2cccc(-c3csc(NC(=O)CNC(=O)c4ccn(S(C)(=O)=O)c4)n3)c2)[C@@H](C)CO1 [Compound 160] | > 0.01 µM | > 0.1 µM
CO[C@@H]1CCCN(c2cccc(-c3csc(NC(=O)CNC(=O)c4ccn(S(C)(=O)=O)c4)n3)c2)C1 [Compound 161] | > 0.01 µM | > 0.01 µM
C[C@@H]1CN(c2cccc(-c3csc(NC(=O)CNC(=O)c4ccn(C(C)(C)C#N)c4)n3)c2)C[C@H](C)O1 [Compound 162] | < 0.01 µM | < 0.01 µM
C[C@@H]1CN(c2cccc(-c3csc(NC(=O)CNC(=O)c4ccn(C5(C#N)CC5)c4)n3)c2)C[C@H](C)O1 [Compound 163] | < 0.01 µM | > 0.01 µM
CC1(C)CN(c2cccc(-c3csc(NC(=O)CNC(=O)c4ccn(S(C)(=O)=O)c4)n3)c2)CC[C@H]1O [Compound 164] | < 0.01 µM | > 0.01 µM
CC1(C)CN(c2cccc(-c3csc(NC(=O)CNC(=O)c4ccn(S(C)(=O)=O)c4)n3)c2)CC[C@@H]1O [Compound 165] | > 0.01 µM | > 0.01 µM
CO[C@@H]1CN(c2cccc(-c3csc(NC(=O)CNC(=O)c4ccn(S(C)(=O)=O)c4)n3)c2)C[C@H]1F [Compound 168] | > 0.01 µM | > 0.01 µM
CS(=O)(=O)n1ccc(C(=O)NCC(=O)Nc2nc(-c3cccc(N4CCC(CO)(C(F)(F)F)C4)c3)cs2)c1 (stereo not shown) [Compound 169] | > 0.1 µM | > 0.1 µM
CS(=O)(=O)n1ccc(C(=O)NCC(=O)Nc2nc(-c3cccc(N4CC5(CCCCO5)C4)c3)cs2)c1 [Compound 170] | > 0.01 µM | > 0.01 µM

SMILES | IC50 [1] | IC50 [2]
CS(=O)(=O)n1ccc(C(=O)NCC(=O)Nc2nc(-c3cccc(N4CC5(CCCOC5)C4)c3)cs2)c1 [Compound 171] | > 0.1 µM | > 0.1 µM
CS(=O)(=O)n1ccc(C(=O)NCC(=O)Nc2nc(-c3cccc(N4CC(n5ccnc5)C4)c3)cs2)c1 [Compound 172] | > 0.01 µM | > 0.1 µM
CS(=O)(=O)n1ccc(C(=O)NCC(=O)Nc2nc(-c3cccc(N4CC(n5cccn5)C4)c3)cs2)c1 [Compound 174] | > 0.01 µM | > 0.01 µM
CN(C)C1CN(c2cccc(-c3csc(NC(=O)CNC(=O)c4ccn(S(C)(=O)=O)c4)n3)c2)C1 [Compound 175] | > 0.01 µM | > 0.01 µM
CS(=O)(=O)n1ccc(C(=O)NCC(=O)Nc2nc(-c3cccc(N4CC(O)(C(F)(F)F)C4)c3)cs2)c1 [Compound 176] | > 0.1 µM | > 0.1 µM
CS(=O)(=O)n1ccc(C(=O)NCC(=O)Nc2nc(-c3cccc(N4CC[C@H](O)C4)c3)cs2)c1 [Compound 177] | > 0.01 µM | > 0.01 µM
CS(=O)(=O)n1ccc(C(=O)NCC(=O)Nc2nc(-c3cccc(N4CC[C@@H](O)C4)c3)cs2)c1 [Compound 178] | < 0.01 µM | < 0.01 µM
CC1(O)CN(c2cccc(-c3csc(NC(=O)CNC(=O)c4ccn(S(C)(=O)=O)c4)n3)c2)C1 [Compound 179] | > 0.01 µM | > 0.01 µM
CO[C@H]1CN(c2cccc(-c3csc(NC(=O)CNC(=O)c4ccn(S(C)(=O)=O)c4)n3)c2)C[C@@H]1F [Compound 180] | > 0.01 µM | > 0.01 µM
C[C@@H]1CN(c2cccc(-c3nc(NC(=O)CNC(=O)c4ccn(S(C)(=O)=O)c4)sc3F)c2)C[C@H](C)O1 [Compound 181, N-[2-[[4-[3-[(cis)-2,6-dimethylmorpholin-4-yl]phenyl]-5-fluoro-thiazol-2-yl]amino]-2-oxo-ethyl]-1-methylsulfonyl-pyrrole-3-carboxamide] | > 0.01 µM | > 0.01 µM
C[C@@H]1CN(c2cccc(-c3csc(NC(=O)CNC(=O)c4ccn(S(C)(=O)=O)c4)n3)c2)CC[C@H]1O [Compound 182, N-[2-[[4-[3-[(3R,4R)-4-hydroxy-3-methyl-1-piperidyl]phenyl]thiazol-2-yl]amino]-2-oxo-ethyl]-1-methylsulfonyl-pyrrole-3-carboxamide] | < 0.01 µM | < 0.01 µM
C[C@H]1CN(c2cccc(-c3csc(NC(=O)CNC(=O)c4ccn(S(C)(=O)=O)c4)n3)c2)CC[C@@H]1O [Compound 183, N-[2-[[4-[3-[(3S,4S)-4-hydroxy-3-methyl-1-piperidyl]phenyl]thiazol-2-yl]amino]-2-oxo-ethyl]-1-methylsulfonyl-pyrrole-3-carboxamide] | < 0.01 µM | < 0.01 µM
COCCOC1CN(c2cccc(-c3csc(NC(=O)CNC(=O)c4ccn(S(C)(=O)=O)c4)n3)c2)C1 [Compound 184] | > 0.01 µM | > 0.01 µM
CC1(n2ccc(C(=O)NCC(=O)Nc3nc(-c4cccc(N5CCC5)c4)cs3)c2)COC1 [Compound 185] | > 0.01 µM | > 0.01 µM
CC(C)(C)n1ccc(C(=O)NCC(=O)Nc2nc(-c3cccc(N4CCC4)c3)cs2)c1 [Compound 186] | > 0.01 µM | > 0.01 µM
C[C@@H]1CN(c2cccc(-c3csc(NC(=O)CNC(=O)c4ccn(S(C)(=O)=O)c4)n3)c2)CC[C@@H]1O [Compound 188] | < 0.01 µM | > 0.01 µM
CN(C)C(=O)Cn1ccc(-c2cccc(-c3csc(NC(=O)CNC(=O)c4ccn(S(C)(=O)=O)c4)n3)c2)n1 [Compound 189] | < 0.01 µM | < 0.01 µM
CS(=O)(=O)n1ccc(C(=O)NCC(=O)Nc2nc(-c3cccc(N4CC[C@H](O)[C@@H](F)C4)c3)cs2)c1 [Compound 190] | < 0.01 µM | < 0.01 µM
CS(=O)(=O)n1ccc(C(=O)NCC(=O)Nc2nc(-c3cccc(N4CC[C@H](O)[C@H](F)C4)c3)cs2)c1 [Compound 191] | < 0.01 µM | > 0.01 µM
COCCS(=O)(=O)n1ccc(C(=O)NCC(=O)Nc2nc(-c3cccc(N4C[C@@H](C)O[C@@H](C)C4)c3)cs2)c1 [Compound 193] | > 0.01 µM | > 0.01 µM
CC1(C)CN(c2cccc(-c3csc(NC(=O)CNC(=O)c4ccn(S(C)(=O)=O)c4)n3)c2)CCC1O (stereo not shown) [Compound 194] | < 0.01 µM | > 0.01 µM
CS(=O)(=O)n1ccc(C(=O)NCC(=O)Nc2nc(-c3cccc(N4CC[C@@H](O)[C@H](F)C4)c3)cs2)c1 [Compound 195] | < 0.01 µM | < 0.01 µM
CS(=O)(=O)n1ccc(C(=O)NCC(=O)Nc2nc(-c3cccc(N4CC[C@@H](O)[C@@H](F)C4)c3)cs2)c1 [Compound 196] | < 0.01 µM | < 0.01 µM
